Laboratory results: patent publication US11066638B2 (priority 2016, dated 2021)
In brackets after ≈: the same amount, converted by molar mass. Like-named read-outs stand apart in the source and are kept apart here.

Legend:
Listeria monocytogenes [1] = conditions: for colony formation of bacterial ghosts plated on BHI agar media: MIC
Method: Specifically, a BHI liquid medium was inoculated with Listeria, and incubated for 72 hours. After incubation, centrifugation was performed at 10,000 g for 10 minutes to obtain the cultured Listeria. […] Listeria was obtained at 15, 30, 45, 60 and 90 minutes after the beginning of culture and the lysis rate was measured.

Listeria monocytogenes [2] = assay: microbe, parasite or virus in culture; conditions: 18 h, read-out: minimum inhibitory concentration (MIC)
Method: (§1) Specifically, Listeria monocytogenes, a gram-positive bacterium, was cultured in a brain-heart infusion (BHI) medium at 7° C. and 200 rpm under shaking conditions overnight, and then the degree of bacterial growth was determined by measuring optical density at 600 nm using a Biochrom Libra S22 spectrophotometer.

Listeria monocytogenes [3] = conditions: 18 hours
Listeria monocytogenes [4] = conditions: BHI liquid medium, 10^6 CFU/ml, 37° C., 18 hours, optical density at 600 nm
Method: as §1

[5] = treated with 6.25 mg/ml (MIC), plated without dilution, 37° C.

| SMILES | colony formation of bacterial ghosts plated on BHI agar media (Listeria monocytogenes [1]; ghosts prepared from 15 minutes after treatment) | lysis rate of gram-positive bacteria (Listeria monocytogenes [1]; at about 15 minutes after the MIC has been applied) [%] | MIC (Listeria monocytogenes [2]) [µg/mL] | colony formation on BHI agar medium (Listeria monocytogenes [3]; treated with 3.125 mg/ml, diluted to a dilution factor of 1/10, 37° C.) | colony formation on BHI agar medium (Listeria monocytogenes [3]; [5]) | minimum inhibitory concentration (MIC) (Listeria monocytogenes [4]) [µg/mL] | time to formation of bacterial ghosts after treatment (Listeria monocytogenes [1]; MIC 6.25 mg/ml, 37° C., 10^6 CFU/ml Listeria in PBS) | colony formation of bacterial ghosts plated on BHI agar media (Listeria monocytogenes [1]; ghosts prepared from 10 minutes after treatment) | colony formation on BHI agar medium (Listeria monocytogenes [3]; treated with 3.125 mg/ml, plated without dilution, 37° C.) |
| --- | --- | --- | --- | --- | --- | --- | --- | --- | --- |
| Cl [hydrochloric acid] | colonies were not formed | 100 | 6250 (≈ 171 mM) | tens of colonies were also formed | no viable colony was formed |  |  |  |  |
| [Na+].[OH-] [sodium hydroxide] |  |  |  |  | no viable colony was formed | 6250 | about 10 minutes | colonies were not formed | thousands of colonies were formed |
